Results filed as inconclusive are left out.
The compounds below were run on M. tuberculosis H37Rv growth inhibition, 7H9 media (assay: M. tuberculosis growth inhibition, HTS (AID 449762;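 further: bacterial growth assessed after seven days of incubation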)). Conditions: not given.
With `N#Cc1cccc(NC(=O)N2CCC(c3nc4c(nnn4Cc4cccc(Cl)c4)c(=O)[nH]3)CC2)c1` the IC50 was 12.4 µM.
In the case of `CN1CCN(c2c(F)cc3c(=O)c(C(=O)O)cn4c3c2OCN4C)CC1`, the IC50 is reported as 0.72 µM.
`CCCCNc1nc(N(C)c2ccccc2)nc(-n2ccnc2)n1` gave an IC50 of 10.8 µM.
For `CCOc1ccc(-n2c(-c3ccc(Br)cc3)c[n+]3c2CCCCC3)cc1`, the IC50 was 69.7 µM.
`O=C(/C=C/Sc1ncn[nH]1)c1ccc(Cl)cc1` gave an IC50 of 16.8 µM.
Work on `O=c1cc(-c2ccccc2Cl)oc2ccc([N+](=O)[O-])c(O)c12` yielded an IC50 of 11.9 µM.
Work on `N#Cc1c(SCC(N)=O)nsc1SCc1ccccc1Cl` yielded an IC50 of 12.6 µM.
`O=C1N/C(=N\N=C\c2ccccn2)SC1Cc1cccc(SC(F)F)c1` (centres undefined) gave an IC50 of 73.1 µM.
`COc1ccc(-c2nc(NC(=O)Cn3ccc(C(F)(F)F)n3)sc2C)cc1` showed an IC50 of under 0.2 µM.
With `O=C(/C=C\c1cccs1)N1CCN(Cc2ccc3c(c2)OCO3)CC1` the IC50 was 1.48 µM.
In the case of `O=C1Nc2ccc(Br)cc2C12NNc1ccccc1O2` (centres undefined), the IC50 is reported as 23.3 µM.
For `CC(C)(C)NC(=O)C(c1c[nH]c2ccccc12)N(C(=O)Cn1nnc(-c2ccc(F)cc2)n1)c1cccc(O)c1` (centres undefined), the IC50 was 64 µM.
In the case of `CCC(=O)NC(=S)Nc1ccc(NC(=O)COc2ccc(Cl)cc2Cl)cc1`, the IC50 is reported as 88.1 µM.
`Cn1nc(C(C)(C)C)cc1NC(=O)Nc1cc(Cl)cc(Cl)c1` was tested, and the IC50 was 18.5 µM.
For `CC(=O)Oc1ccc(/C=N\NC(=O)c2cc3c(ccc4ccccc43)o2)cc1`, the IC50 was 58.5 µM.
`O=C(/C=C/c1ccc(OCCCF)cc1)Nc1ccnc(-c2ccncc2)n1` gave an IC50 of 37.5 µM.
For `CCc1ccc(-c2nn(-c3ccccc3)cc2CSC(=N)N)cc1`, the IC50 was 17.5 µM.
With `COc1nc(-c2ccccc2)cc(-c2ccc(OC)c(OC)c2)n1` the IC50 was 45.3 µM.
With `O=C(Nc1ccc(Oc2cccc(C(F)(F)F)c2)nc1)c1cccs1` the IC50 was 39.6 µM.
With `COc1cc(/C=C/C(=O)c2c(O)n(CCc3ccccc3)c(=O)[nH]c2=O)ccc1O` the IC50 was 4.59 µM.
`Cc1ccc(/C=C(\NC(=O)c2ccc(C)cc2)c2nc(=S)[nH][nH]2)cc1` gave an IC50 of 39.5 µM.
Compound `Cc1ccc(Cn2c(C(CO)Nc3nc(-c4ccc(F)cc4)cs3)nc3ccccc32)cc1` (centres undefined) has an IC50 of 42.1 µM.
`CCCCn1c(NCc2ccc3c(c2)OCO3)nc2ccccc21` showed an IC50 of 19 µM.
`Cc1ccc(-n2cc(CN(C)Cc3nccn3C)c(-c3cccc(C)c3)n2)cc1` showed an IC50 of 9.52 µM.
In the case of `Cc1c(Cl)cccc1-c1ccc(CNCc2ccccn2)o1`, the IC50 is reported as 0.7 µM.
For `CN1CCN(C2Cc3ccccc3Sc3cc(C(F)(F)F)ccc32)CC1` (centres undefined), the IC50 was 13.5 µM.
In the case of `CC(/C=C/c1ccccc1)=N\NC(N)=S`, the IC50 is reported as 3.84 µM.
`O=C(C[C@@H]1C/C=C\C[C@H](NC(=O)OCC2c3ccccc3-c3ccccc32)C(=O)OC[C@H]2CCCN2C1=O)N[C@@H](CO)Cc1ccccc1` showed an IC50 of 16.1 µM.
In the case of `Nc1cc(Cl)c2nonc2c1[N+](=O)[O-]`, the IC50 is reported as 5.83 µM.
Work on `CC(C)[C@H](CO)N(Cc1cccc(F)c1)c1nc(Nc2cccc(Cl)c2)c2ncn(C(C)C)c2n1` yielded an IC50 of 23.2 µM.
Compound `COc1ccc2c(c1)[C@@H]1[C@H](CO2)[C@H](c2ccccc2)[C@]2(C)C(=O)Nc3ccc(C)cc3C(=O)N12` has an IC50 of 49.5 µM.
Compound `O=C(CCc1nnc(CCCc2ccccc2)o1)NCCCC1CCCC1` has an IC50 of 10.5 µM.
For `CN(CC(=O)Nc1ccc(OC(F)(F)F)cc1)C(=O)/C=C/c1cc2c(cc1[N+](=O)[O-])OCO2`, the IC50 was 30.2 µM.
Compound `CCCCCOc1ccc(NC2=CC(=O)CCC2)cc1` has an IC50 of 52.4 µM.
With `COC(=O)c1ccc(NC(=O)CSc2nc3ccc(N4C(=O)C5C6C=CC(C6)C5C4=O)cc3s2)cc1` (centres undefined) the IC50 was 3.89 µM.
Work on `CCc1ccc(NC(=S)/N=C(\N)Nc2nc(C)c3cc(CC)ccc3n2)cc1` yielded an IC50 of 7.31 µM.
`O=C(c1cccc(-c2ccco2)c1)N1CCCC(N2CCN(c3ccc(F)cc3)CC2)C1` (centres undefined) was tested, and the IC50 was 52.5 µM.
In the case of `O=C(c1ccc(Cl)cc1)N1N=C(c2ccccn2)CC1(O)C(F)(F)F` (centres undefined), the IC50 is reported as 2.21 µM.
`Cc1[nH][nH]c(=O)c1C(c1ccc(-c2ccc(Cl)c(Cl)c2)o1)c1c(C)[nH][nH]c1=O` showed an IC50 of 53.4 µM.
`Clc1ccc(CNc2nc(CN3CCOCC3)nc3scc(-c4ccccc4)c23)cc1` gave an IC50 of 17.3 µM.
`O=[N+]([O-])c1ccc(Sc2cc[n+]([O-])c3ccccc23)c([N+](=O)[O-])c1` gave an IC50 of 16.1 µM.
Compound `CC(C)Cc1nc2oc3c(N4CCN(CCO)CC4)ncnc3c2c2c1CCCC2` has an IC50 of 18.3 µM.
Compound `CNc1ccc2oc(C[C@H]3O[C@@]4(CC[C@H]3C)O[C@H]([C@H](C)C(=O)c3ccc[nH]3)[C@H](C)C[C@H]4C)nc2c1C(=O)O` has an IC50 of 1.1 µM.
`COc1cc(NC(=O)c2ccc(COc3ccccc3Br)o2)cc(OC)c1OC` was tested, and the IC50 was 44.3 µM.
`C(=N\Nc1ccc2ccccc2n1)/c1ccc2c(c1)OCCO2` gave an IC50 of 2.77 µM.
For `Cc1cc(-c2nnc3n2CCCCC3)c(C)n1-c1ccccc1`, the IC50 was 45.7 µM.
`Cc1nc(-c2nc(-c3c(C(=O)NNC(=O)c4ccc(Cl)cc4)noc3C)cs2)cs1` gave an IC50 of 7.57 µM.
`c1ccc(-c2nc(N3CCCC3)nc3ccccc23)cc1` showed an IC50 of 37.5 µM.
In the case of `CN(C)c1ccc(/C=C2\N=C(C(C)(C)C)OC2=O)cc1`, the IC50 is reported as 14.4 µM.
Compound `COc1ccc(-c2cn3cc([N+](=O)[O-])ccc3n2)cc1OC` has an IC50 of 17.8 µM.
With `CCOc1cc(CNCCCN2CCOCC2)cc(Br)c1OCC(=O)Nc1cccc(C(F)(F)F)c1` the IC50 was 22.1 µM.
Work on `C/C(=N\NC(=S)Nc1cccc(C)c1)c1cccc(N)c1` yielded an IC50 of 25.8 µM.
`CN1C(=S)SC(N(O)C(=O)Nc2ccc(Cl)c(Cl)c2)C1(C)C` (centres undefined) gave an IC50 of 22.8 µM.
In the case of `O=C1C(=O)c2ccccc2-c2ccccc21`, the IC50 is reported as 6.31 µM.
In the case of `CC(=O)n1cc(/C=C2/N=C(c3ccccc3)OC2=O)c2ccccc21`, the IC50 is reported as 30.7 µM.
Work on `CCCCN(CCCC)CCC(O)c1cc2c(Cl)cc(Cl)cc2c2cc(C(F)(F)F)ccc12` (centres undefined) yielded an IC50 of 16.6 µM.
`COc1ccc(/C=C/CN2CCC(CO)(Cc3ccccc3Cl)CC2)cc1` showed an IC50 of 23.1 µM.
With `O=c1[nH]c(CSc2cccc[n+]2[O-])nc2ccccc12` the IC50 was 96.4 µM.
`NC1=NC2(CCC(c3ccccc3)CC2)n2c(nc3ccccc32)N1` (centres undefined) gave an IC50 of 28.6 µM.
Compound `CC(=O)Nc1ccc(N2C(C(C)=O)=NN(c3ccc(Cl)cc3)C2c2sccc2C)cc1` (centres undefined) has an IC50 of 83.9 µM.
Compound `CCc1ccc(NC(=O)CSc2nc3n[nH]c(C)c3c(=N)n2-c2cccc(OC)c2)cc1` has an IC50 of 13.2 µM.
Compound `Cc1ccnc(NC(=O)c2cc3ccccc3o2)c1` has an IC50 of 43.9 µM.
Work on `COc1ccc(CN(CCC(c2ccccc2)c2ccc(OC(C)C)cc2)C(=O)CCl)cc1OC` (centres undefined) yielded an IC50 of 6.53 µM.
`COc1ccc(OC)c(C(=O)NC(CC(N)=O)c2ccc(NCc3ccc(F)c(F)c3)c([N+](=O)[O-])c2)c1` (centres undefined) showed an IC50 of 5.38 µM.
For `CCCCCC(=O)N/N=C(\C)c1ccccn1`, the IC50 was 13.9 µM.
Compound `CN(C)CCCN(C(=O)c1ccc([N+](=O)[O-])s1)c1nc2cc3c(cc2s1)OCCO3` has an IC50 of 30.7 µM.
With `Cn1c(CNc2ccccc2O)nc2ccccc21` the IC50 was 3.01 µM.
Compound `CN(C)CCCNC(=O)c1ccc(-c2nc(-c3ccc(Cl)cc3)cs2)cc1` has an IC50 of 27.8 µM.
In the case of `CN1C2CCC1/C(=C/c1ccccn1)C(=O)/C2=C\c1ccccn1`, the IC50 is reported as 16.4 µM.
Work on `CC1(C)Cc2c(cnn2-c2ccccc2)-c2c1c1ccccc1n2CC(O)CCl` (centres undefined) yielded an IC50 of 88.2 µM.
`CCn1nc(NC(=O)c2ccncc2)c2cc3cc(C)ccc3nc21` gave an IC50 of 4.47 µM.
Compound `COc1cccc(-n2nnc3c(=O)n(CC(=O)N4CCC(Cc5ccccc5)CC4)cnc32)c1` has an IC50 of 23.2 µM.
In the case of `O=[N+]([O-])c1ccc(-n2cnc3ccccc32)c([N+](=O)[O-])c1`, the IC50 is reported as 1.61 µM.
For `CN1CCN(/N=C/c2c3ccccc3c(Cl)c3ccccc23)CC1`, the IC50 was 77.7 µM.
`CCN(Cc1ccncc1)Cc1nc(-c2ccc(C(=O)OC)cc2)no1` showed an IC50 of 15.3 µM.
Work on `O=C(Oc1ccc(-c2cn3c(n2)SCC3)cc1)c1ccccc1` yielded an IC50 of 38.2 µM.
For `COc1ccc(-c2nc(CN3CCN(c4cc(C)nc(C)c4)CC3)c(C)o2)c2ccccc12`, the IC50 was 19.6 µM.
Work on `CC(=O)N(Cc1ccc(F)cc1)C1=C(NCCc2ccccc2)C(=O)c2ccccc2C1=O` yielded an IC50 of 5.83 µM.
`CCOC(=O)c1c(-c2ccc(OC)cc2)csc1NC(=O)CNCc1ccco1` was tested, and the IC50 was 10.9 µM.
For `COc1cc(C)c(/C=C/C(C)=C/C=C/C(C)=C/C(=O)O)c(C)c1C`, the IC50 was 1.56 µM.
`CC1(C)C2CCC1(C)C(OCC[N+](C)(C)CC(=O)OC1CCCCC1)C2` (centres undefined) showed an IC50 of 10.9 µM.
With `CCCSc1nnc(Sc2nnnn2-c2ccccc2)s1` the IC50 was 10.2 µM.

Same assay, conditions: measured here: IC90 growth inhibition
Work on `N#Cc1cccc(NC(=O)N2CCC(c3nc4c(nnn4Cc4cccc(Cl)c4)c(=O)[nH]3)CC2)c1` yielded an IC90 of 13.5 µM.
`CN1CCN(c2c(F)cc3c(=O)c(C(=O)O)cn4c3c2OCN4C)CC1` showed an IC90 of 0.8 µM.

Reference: PubChem BioAssay AID449762 (Southern Research Specialized Biocontainment Screening …, 2010)
